These are literature values, as cited in US5385907A, “Ointments containing FK-506 or derivatives thereof” (priority 1990, dated 1995).

For this series the following is noted: dissolved in ethanol (EP-A-315978).

Structures are written as SMILES.

Consider `C=CCC1C=C(C)CC(C)CC(OC)C2OC(O)(C(=O)C(=O)N3CCCCC3C(=O)OC(C(C)=CC3CCC(O)C(OC)C3)C(C)C(O)CC1=O)C(C)CC2OC` (stereo not shown) [FK 506 substance, 17-allyl-1,14-dihydroxy-12-[2-(4-hydroxy-3-methoxycyclohexyl)-1-methylvinyl]-23,25-dimethoxy-13,19,21,27-tetramethyl-11,28-dioxa-4-azatricyclo[22.3.1.0^4,9]octacos-18-ene-2,3,10,16-tetraone], for which the inflammatory inhibition result is “effective against inflammatory inhibition”.
